Assay results: US7538120B2, “Method of treating inflammatory diseases” (Array Biopharma Inc., priority 2003, dated 2009)
“Also recorded” adds a separate entry of the source.

Key:
[1] = system: carrageenan paw edema in rats; test: Carrageenan paw edema model in rats; assay type: in vivo, rat; conditions: for paw weight: 3, 10 and 30 mg/kg oral, 2 h before carrageenan, 4 h after injection, FIG. 11; for ED50: Rattus norvegicus, oral, single dose, read-out: ED50 (paw weight); for activity compared with indomethacin: vs indomethacin 2 mg/kg (positive control)
Method: The rat carrageenan paw edema model of inflammation was utilized to evaluate the effectiveness of AR-13 and AR-14 in ameliorating swelling and inflammation.
Male Lewis rats (7-9 weeks of age; 10 per group) were acclimated for at least 7 days after arrival.
Acclimated animals were randomized into groups by body weight. Animals were treated orally with AR-13 or AR-14 (3, 10 or 30 mg/kg) or with a positive control (indomethacin, 2 mg/kg). After 2 hours, the animals were anesthetized with Isoflurane and given an intradermal injection of 1.2% carrageenan into the right hind footpad. Four hours after the carrageenan injection, the animals were sacrificed with carbon dioxide inhalation and both paws were removed at the medial malleolus and weighed. The difference in weight between the right (carrageenan) and left (normal) paws was calculated.

[2] = system: adjuvant-induced arthritis in rats; test: Adjuvant-induced arthritis (AIA) in rats; assay type: in vivo
Method: Male Lewis rats (7-9 weeks of age; 8 per group for arthritis, 4 per group for normal control) were acclimated for 7 days after arrival.
Acclimated animals were randomized into groups by body weight and then anesthetized with Isoflurane and given lipoidal amine (LA) in Freund's complete adjuvant (100 μL injection of 7 mg LA, intradermal administration at the base of the tail, Day 0).
Caliper measurements of normal (pre-disease) right and left ankle joints were taken on day 7 post-adjuvant injection. On day 8, dosing began for vehicle and AR-14 treatment groups. Methotrexate treatment (0.075 mg/kg) began on day 0 prior to adjuvant injection.
Once enrolled in the treatment group, treatment with once daily oral doses of AR-14 (1, 3, 10 or 30 mg/kg) was initiated. […] Animals receiving vehicle or compound were enrolled and daily dosing was initiated using a volume of 5 mL/kg for oral solutions on days 8-14. Rats were weighed on days 8-14 and caliper measurements of ankles were taken every day. Final body weights and caliper measurements of ankles and paws were taken on day 15. On day 15, animals were euthanized, both hind paws were removed, and the hind paws weighed and then placed in formalin for histopathologic analyses. Spleens were also removed, weighed and placed in formalin for histopathologic analyses.

[3] = system: type II collagen-induced arthritis in rats; test: Established type II collagen-induced arthritis (CIA) in rats; assay type: in vivo
Method: Type II collagen-induced arthritis (CIA) in rats is an experimental model of arthritis that has a number of pathologic, immunologic, and genetic features in common with rheumatoid arthritis.
Female Lewis rats (7-9 weeks of age; 8 per group for arthritis, 4 per group for normal control) were acclimated for 7 days after arrival.
Acclimated animals were anesthetized with Isoflurane. The disease was induced by immunization of the rats with type II collagen (equal mixture of 4 mg/mL bovine type II collagen in 0.01 N acetic acid and Freund's incomplete adjuvant) by injection (day 0). On day 6, the rats were anesthetized again for the second collagen injection. Each animal received 300 μL of the collagen mixture on days 0 and 6, which was spread over 3 sites on the back.
Caliper measurements of normal (pre-disease) right and left ankle joints were taken on day 9 post-collagen injection. On days 10-11, onset of arthritis occurred and rats were randomized into treatment groups. Randomization into each group was done after ankle joint swelling was established in at least one hind paw.
Once enrolled in the treatment groups, treatment with once daily oral dosing of AR-14 (1, 3, 10, 30 or 60 mg/kg) or indomethacin (1 mg/kg) was initiated. Animals receiving vehicle or compound were enrolled and daily dosing was initiated using a volume of 5 mL/kg for oral solutions. ENBREL (etanercept) treatment was on days 11 and 15 (10 mg/kg) by subcutaneous administration. Rats were weighed on days 11-18 and caliper measurements of ankles were taken every day. Final body weights were taken on day 19. On day 19, animals were euthanized, both hind paws and knees were removed, hind paws were weighed and then (with knees) placed in formalin.
Following 1-2 days in fixative and then 4-5 days in decalcifier, the ankle joints and knees were processed, embedded, sectioned and stained with toluidine blue.
A clinical scoring index was used to assess disease progression. Collagen arthritic ankles and knees were given scores of 0-5 for inflammation, pannus formation and bone resorption according to the criteria in Tables 1-7.
Clinical data for ankle joint diameter were analyzed by determining the area under the dosing curve (AUC). For calculation of AUC, the daily measurements of ankle joints (using a caliper) for each rat were entered into Microsoft Excel and the area between the treatment days after the onset of disease to the termination day was computed. Means for each group were determined and percent inhibition from arthritis controls was calculated by comparing values for treated and normal animals. Data were analyzed by the Mann Whitney or Student's t test. Paw weights and histologic parameters (mean±SE) for each group were analyzed for differences using the Mann Whitney or Student's t test. In both cases, significance was set at p≦0.05.
Percent inhibition of paw weight and AUC was calculated using the following formula: % Inhibition=A−(B/A)×100
wherein A=(Mean Disease Control−Mean Normal) and B=(Mean Treated−Mean Normal).

[4] = system: indomethacin-induced IBD in rats; test: Indomethacin-induced inflammatory bowel disease (model of Crohn's disease) in rats; assay type: in vivo
Method: This study evaluated AR-14 (PO, QD) in a model of Crohn's disease (indomethacin induced intestinal injury) in rats to determine if beneficial effects could be detected in this IBD model.
Rats received two subcutaneous administrations of indomethacin (7.5 mg/kg, in 5% NaHCO3) spaced 24 hours apart. Rats received once daily oral doses of vehicle, AR-14 (1, 3, 10 or 30 mg/kg) or dexamethasone (0.1 mg/kg). Rats were euthanized and evaluated for effects of treatment at day 4 post-initial indomethacin injection. Body weights were taken as well as intestinal weights per 10 cm of area at risk.
A clinical scoring index (Table 8) was used to assess disease progression. Intestines were scored for gross lesions and multiple sections of gut taken for histology (5 sections per rat spaced equally along area at risk).
Five equally spaced sections from area at risk were scored for necrosis and inflammation (0,0) (1,3) etc., according to the criteria in Tables 9 and 10.

[5] = system: MEK; test: MEK inhibition in vivo (stated in summary, no method given)
[6] = 10 and 30 mg/kg vs dexamethasone 0.1 mg/kg

O=C(NOCCO)c1cn2ccnc2c(Cl)c1Nc1ccc(Br)cc1F [AR-13, 7-(4-bromo-2-fluorophenylamino)-8-chloroimidazo[1,2-a]pyridine-6-carboxylic acid (2-hydroxyethoxy)-amide]
paw weight [1]: significantly inhibit | ED50 [1]: ~10 mg/kg | activity compared with indomethacin [1]: superior to the positive control indomethacin

O=C(NOCCO)c1cn2ccnc2c(Cl)c1Nc1ccc(Br)cc1Cl [AR-14, 7-(4-bromo-2-chlorophenylamino)-8-chloroimidazo[1,2-a]pyridine-6-carboxylic acid (2-hydroxyethoxy)-amide]
progression of established disease ([2]; 30 mg/kg): stopped the progression of established disease and causes improvement to normal | body weight loss ([2]; 30 mg/kg, after 15 days, FIG. 5): significantly inhibited | joints (paw weight study) ([2]; 30 mg/kg, after 15 days, comparable to methotrexate): Near normal joints with minimal inflammation | splenomegaly (relative spleen weight) ([2]; 3, 10 and 30 mg/kg, after 15 days, FIG. 7): significantly inhibited | inhibition of splenomegaly compared with methotrexate ([2]; 10 and 30 mg/kg): comparable to that seen with methotrexate | activity compared with methotrexate ([2]; AR-14 30 mg/kg vs methotrexate 0.075 mg/kg): equivalent to methotrexate | tolerability ([2]; all doses administered (1, 3, 10, 30 mg/kg, once daily oral)): well tolerated | ankle swelling (paw diameter) compared to vehicle control ([2]; all doses tested, over 15 days, FIG. 4): significantly inhibited | paw weight gain (edema/inflammation) compared to vehicle control ([2]; all doses, after 15 days, FIG. 6): significantly inhibited | acute gross and microscopic inflammation ([2]; once daily oral 30 mg/kg): reversal | progression of established disease (arthritis) ([3]; 10 mg/kg once daily oral): stopped the progression; also recorded: significantly inhibited | ankle histopathology (joints) ([3]; 10 mg/kg, after 7 days): Near normal joints with minimal inflammation | established disease, improvement ([3]; 60 mg/kg once daily oral): improvement to normal | pannus formation, cartilage damage and bone resorption (ankle histopathology) ([3]; 1 and 3 mg/kg, after 7 days, FIG. 3): significantly inhibited | ankle histopathology compared with indomethacin or ENBREL ([3]; AR-14 10 mg/kg): significantly better than indomethacin or ENBREL | activity on ankle diameter compared with ENBREL (etanercept) ([3]; AR-14 10 mg/kg vs ENBREL 10 mg/kg s.c.): better than that of ENBREL | activity on ankle diameter compared with indomethacin ([3]; AR-14 10 mg/kg vs indomethacin 1 mg/kg): equivalent to indomethacin | ED50 ([3]; Rattus norvegicus, 168 h, after 7 days, once daily oral, read-out: ED50 (inhibition of body weight loss)): 4.57 mg/kg | tolerability ([3]; all doses administered (1, 3, 10, 30, 60 mg/kg, once daily oral)): well tolerated | ankle swelling (ankle/paw diameter) compared to vehicle control ([3]; all doses tested (1-60 mg/kg), over 7 days, FIG. 1): significantly inhibited | body weight loss ([3]; all doses tested, after 7 days, FIG. 2): significantly inhibited | joint destruction ([3]; dose of 1 mg/kg, 1 mg/kg): significantly inhibited; also recorded: significant inhibition | body weight ([3]; doses of 30 and 60 mg/kg, after 7 days): near normal body weights | acute gross and microscopic inflammation ([3]; once daily oral 10 mg/kg): reversal | histopathology of the gut (necrosis and inflammation scored) compared with dexamethasone ([4]; 30 mg/kg, FIG. 10): significantly more efficacious than dexamethasone | small intestine weight gain as a result of edema/inflammation ([4]; 3, 10 and 30 mg/kg, after 4 days, FIG. 9): significantly inhibited | inhibition of gross lesion score compared with dexamethasone [4, 6]: significantly better than dexamethasone | inhibition of intestinal inflammation and edema, small intestine necrosis and inflammation compared with dexamethasone [4, 6]: significantly better than dexamethasone | gross lesion score (small intestine) ([4]; all doses (1, 3, 10, 30 mg/kg), after 4 days, FIG. 8): significantly inhibited | tolerability ([4]; all doses administered): well tolerated | inhibition of disease (gut score and weight and microscopic changes) ([4]; once daily dosing at 10 mg/kg): significant inhibition | selectivity for MEK in vivo [5]: selective inhibitor of MEK in vivo | paw weight [1]: significantly inhibit | ED50 [1]: ~4 mg/kg | activity compared with indomethacin [1]: superior to the positive control indomethacin
